Measured values as given in patent publication US12370193B2, “Method of inhibiting TREM-1” (UNIVERSITY OF FLORIDA RESEARCH FOUNDATION, INCORPORATED, priority 2019, dated 2025).

Tests used:
[1] = tested on: collagen-induced arthritis; test: Collagen-induced arthritis (CIA) mouse model
Description: Clinical score was monitored every day after boosting during 18 days. […] The dosage of all compounds was identical in each group.
Briefly, DBA/1J mice were injected with chicken type II collagen on day 1 and then each animal received a boost injection of collagen on Day 21. Compound treatment, initiated on day 3-post boost injection, was administered intraperitoneally at 20 mg/kg twice-a-day for a total of 16 days. […] Mice: All mice were maintained in a specific pathogen-free environment in accordance with institutional protocol. […] Female DBA/1J mice were purchased from Taconic. CIA was induced in 8 weeks as previously described^40.

Pharmacokinetics in mice = format: in vivo; settings: 20 mg/kg twice-a-day
Description: Compound was formulated in 10/10/80 DMSO/Tween80/Water and administered to mice at either 20 mg/kg by oral gavage or at 25 mg/kg via intraperitoneal injection. Blood was drawn at the indicated times and plasma was generated. Following solid phase extraction, drug levels were quantitated using LC-MSMS.

Cc1cc(CN2CCN(Cc3ccncc3)CC2)ccc1-c1ccc(C(O)(C(F)(F)F)C(F)(F)F)cc1 [SR1903, 1,1,1,3,3,3-hexafluoro-2-(2′-methyl-4′-((4-(pyridin-4-ylmethyl)piperazin-1-yl)methyl)-[1,1′-biphenyl]-4-yl)propan-2-ol]
enlargement of the liver ([1]; CIA mice, 20 mg/kg): did not cause enlargement of the liver | thymocyte differentiation and survival ([1]; CIA mice, compared to GW3965 or T0901317): enhanced thymocyte differentiation and survival | arthritis clinical score ([1]; Day 34, 20 mg/kg i.p. twice-a-day, vehicle 13.6±2.9): 3.8±2.5 | intrathymic cell number ([1]; treated mice, unlike SR2211 treated mice): enriched | plasma exposure relative to IC50 (Pharmacokinetics in mice): sufficient to have compound levels above its IC50
